Assay results as given in publication PMC7684622, “The application of L‐glutaminase for the synthesis of the immunomodulatory γ‐D‐glutamyl‐L‐tryptophan and the kokumi‐imparting γ‐D‐glutamyl peptides” (Food Science & Nutrition, 2020).

system: T1, L-glutaminase of Bacillus amyloliquefaciens; experiment: transpeptidation, gamma-D-Glu-L-Trp formed, by HPLC / UPLC-MS; format: biochemical; details: gamma-glutamyl donor; fixed 25 mM L-Trp; apparent; read-out: Synthesis
T1 construct: gene ggt; commercial enzyme preparation (Amano Enzyme China); called L-Gln amidohydrolase EC 3.5.1.2 with gamma-glutamyl transpeptidase activity
Description: transpeptidation, gamma-D-Glu-L-Trp formed, by HPLC / UPLC-MS on L-glutaminase of Bacillus amyloliquefaciens

Compound	Km [mM]
NC(=O)CC[C@@H](N)C(=O)O [D-Gln]	5.53 ± 0.98

system: T1, L-glutaminase of Bacillus amyloliquefaciens; experiment: transpeptidation, product by HPLC / UPLC-MS; format: biochemical; details: acceptor; fixed 25 mM D-Gln; apparent; read-out: Synthesis
Description: transpeptidation, product by HPLC / UPLC-MS on L-glutaminase of Bacillus amyloliquefaciens

Compound	Km [mM]
CC(C)[C@H](N)C(=O)O [L-Val]	76.6 ± 3.25
N[C@@H](Cc1c[nH]c2ccccc12)C(=O)O [L-Trp]	32.5 ± 3.86
CSCC[C@H](N)C(=O)O [L-Met]	88.8 ± 6.12
N[C@@H](Cc1ccccc1)C(=O)O [L-Phe]	46.3 ± 2.32

system: T1, L-glutaminase of Bacillus amyloliquefaciens; experiment: hydrolysis, HPLC / UPLC-MS; format: biochemical; details: hydrolysis reaction; apparent
Description: hydrolysis, HPLC / UPLC-MS on L-glutaminase of Bacillus amyloliquefaciens

Compound	Km [mM]
CC(C)[C@H](NC(=O)CC[C@@H](N)C(=O)O)C(=O)O [γ-D-Glu-L-Val]	68.8 ± 5.25
N[C@@H](CCC(=O)N[C@@H](Cc1c[nH]c2ccccc12)C(=O)O)C(=O)O [γ-L-Glu-L-Trp]	15.7 ± 1.82
N[C@H](CCC(=O)N[C@@H](Cc1c[nH]c2ccccc12)C(=O)O)C(=O)O [γ-D-Glu-L-Trp]	36.7 ± 2.86
CSCC[C@H](NC(=O)CC[C@@H](N)C(=O)O)C(=O)O [γ-D-Glu-L-Met]	62.2 ± 4.61
CC(C)[C@H](NC(=O)CC[C@@H](NC(=O)CC[C@@H](N)C(=O)O)C(=O)O)C(=O)O [γ-[D-Glu]2-L-Val]	90.4 ± 6.25
N[C@H](CCC(=O)N[C@@H](Cc1ccccc1)C(=O)O)C(=O)O [γ-D-Glu-L-Phe]	52.8 ± 3.02

system: T1, L-glutaminase of Bacillus amyloliquefaciens; experiment: transpeptidation, gamma-L-Glu-L-Trp formed, by HPLC / UPLC-MS; format: biochemical; details: gamma-glutamyl donor; fixed 25 mM L-Trp; apparent; read-out: Synthesis
Description: transpeptidation, gamma-L-Glu-L-Trp formed, by HPLC / UPLC-MS on L-glutaminase of Bacillus amyloliquefaciens

Compound	Km [mM]
NC(=O)CC[C@H](N)C(=O)O [L-Gln]	0.98 ± 0.08
